Assay results as given in patent US20140051735A1, “USE OF N-PHENYLETHYLPYRAZOLE CARBOXAMIDE DERIVATIVES OR SALTS THEREOF FOR CONTROLLING POWDERY MILDEW PRIMARY INFECTIONS” (BAYER INTELLECTUAL PROPERTY GMBH, priority 2010, published 2014).

Experiments:
[1] = tested on: powdery mildew primary infections; experiment: controlling powdery mildew primary infections in perennial crops after application prior to the end of the previous vegetative cycle; format: in vivo; settings: in the year of the application and also in the year after
powdery mildew species = settings: on different crops; cited from earlier work

Row | SMILES | infection of new growing shoots and leaves [1] | number of early infected shoots [1] | efficacy against powdery mildew species (powdery mildew species)
1 | COC(c1ccc(Cl)cc1Cl)C(C)NC(=O)c1cn(C)nc1C(F)F (stereo not drawn) [3-difluoromethyl-1-methyl-1H-pyrazole-4-carboxylic acid [2-(2,4-dichlorophenyl)-2-methoxy-1-methyl-ethyl]-amide] | delayed | significantly reduced | 
2 | O=C(NCCc1ncc(C(F)(F)F)cc1Cl)c1ccccc1C(F)(F)F [fluopyram] |  |  | high level of efficacy
